Measured values from US8653095B2, “Small molecules with antimalarial activity” (Radix Pharmaceuticals, Inc., priority 2011, dated 2014).

What was measured:
[1] = system: multi-drug resistant P. falciparum Thailand T24 strain; assay: In vivo efficacy in immunocompromised BXN mice infected with P. falciparum T24; conditions: Plasmodium falciparum, 96 h, oral once daily for 4 days
Source text: (§1) Antimalarial efficacy data was obtained by evaluating new compounds in two rodent models: (I) Swiss mice infected with rodent malaria strain P. berghei; (II) Immunocompromised BXN mice infected with either the sensitive P. falciparum African NF54 strain or the multi-drug resistant P. falciparum Thailand T24 strain.

[2] = system: chloroquine-resistant FVO strain of P. falciparum; assay: Efficacy against blood stages of P. falciparum in Aotus monkeys; type: in vivo; conditions: oral for 3 days
Method: In Vivo Efficacy Studies in Aotus Monkey Model. The monkeys selected for the study had active infections of the chloroquine-resistant FVO strain of P. falciparum. Once parasitemias reached 5,000/μl (or as deemed appropriate by the attending veterinarian), they were treated orally with Formula B or Formula C at 2, 4, 8, or 16 mg/kg/day for 3 days. For compound Formula B, the dosage needed to cure 50% of animals was 4 mg/kg/day and the dosage needed to cure 100% of animals was 16 mg/kg/day. For compound Formula C, the 50% curative dose was 2 mg/kg/day and the 100% curative dose was 8 mg/kg/day (Table 7).
Malaria-naive Panamanian owl monkeys (Aotus lemurinus lemurinus) were used as hosts for chioroquine-resistant P. falciparum. The chloroquine-resistant Vietnam Smith strain was used in the initial experiments. In subsequent studies, a recrudescent isolate from a Vietnam Smith strain infected Aotus monkey treated with chloroquine was used.
The inoculum size produced a parasitemia of at least 5×10^3/mm^3 by the fifth day postinoculation, at which time treatment was begun. Stock solutions of water-soluble drug were prepared at appropriate concentrations and maintained at 4° C. during the course of treatment. A suspension of water-insoluble drugs was prepared in 0.3% methylcellulose just prior to use. All drugs were administered by gastric intubation in a volume of 7.0 ml, followed by a 7.0-mi rinse with either water or 0.3% methylcellulose. Test drug was given orally for either three or seven consecutive days. In several experiments, the putative resistance modulator was given three times per day (8:00 AM, noon, and 4:00 PM) for three or seven days.
Giemsa-stained blood smears were prepared from all animals and examined daily beginning the day after inoculation until parasitemia was cleared and for at least seven days thereafter. At that time, blood films were examined twice a week up to 100 days after treatment. Thick blood films were considered negative if no parasites were seen after examination for at least five min. Ten or less parasites on a thick blood film were recorded as <10. Parasitemia was enumerated and expressed as number of parasites/mm^3. Treated animals were observed twice a day for signs of drug toxicity, as evidenced by abnormal behavior, anorexia, diarrhea, or vomiting. Necropsies were per formed on all animals that died. In conducting the research described in this report, the investigators adhered to the Guide for the Care and Use of Laboratory Animals, as promulgated by the National Research Council.
The outcome of each infection was compared with untreated controls and monkeys treated with chloroquine. […]

[3] = system: P. falciparum DD2; assay: In vitro blood stage antimalarial efficacy, [3H]hypoxanthine uptake, strain DD2; type: cell-based; conditions: Plasmodium falciparum, read-out: IC50
Method: (§2) In Vitro Blood Stage Antimalarial Efficacy Evaluation. New compounds were tested against a panel of strains of P. falciparum.
(§3) Test compounds were initially dissolved in DMSO and diluted 400 fold in RPMI 1640 culture medium supplemented with 25 mM Hepes, 32 mM NaHCO3 and 10% Albumax I (Gibco, NY). These solutions were subsequently serially diluted two-fold with a Beckman Biomek® 1000 Robot (Fullerton, Calif.) over 11 different concentrations. The parasites were exposed to serial dilutions of each compound for 48 hrs and incubated at 37° C. with 5% O2, 5% CO2 and 90% N2 prior to the addition of [^3H]hypoxanthine. After a further incubation of 18 hrs, parasite DNA was harvested from each microtiter well using Packard Filtermate™ 196 Harvester (Meriden, Conn.) onto glass filters. Uptake of [^3H]hypoxanthine was measured with a Packard TopCount Liquid Scintillation Counter (Packard Instrument Co.).

[4] = in vivo; conditions: Sprague-Dawley, rat, po; for MTD at 2 weeks: MTD (maximum tolerated dose)
[5] = system: P. falciparum TM6; assay: In vitro blood stage antimalarial efficacy, [3H]hypoxanthine uptake, strain TM6; type: cell-based; conditions: Plasmodium falciparum; read-out: IC50
Method: as §2, §3

[6] = system: P. falciparum African NF54 strain; assay: In vivo efficacy in immunocompromised BXN mice infected with P. falciparum NF54; conditions: Plasmodium falciparum, 96 h, oral once daily for 4 days
Source text: as §1

[7] = system: Liver stage of P. yoelii yoelii; assay: In vitro liver-stage antimalarial efficacy evaluation; type: cell-based; conditions: Plasmodium yoelii
Method: In Vitro Liver-Stage Antimalarial Efficacy Evaluation. Any new desirable antimalarial drug should be broad spectrum: it should be active against both the blood stage and the liver stage of the parasite. New compounds were assessed on the Plasmodium yoelii liver stage in vitro. The liver stage of P. yoelii is a parasite of rodent extensively used as an experimental model for studying the initial phase of the malaria infection.

[8] = system: P. falciparum PH3; assay: In vitro blood stage antimalarial efficacy, [3H]hypoxanthine uptake, strain PH3; type: cell-based; conditions: Plasmodium falciparum; read-out: IC50
Method: as §2, §3

CC[C@@H](N)[C@H](O)[C@H](O)[C@H](COC)[C@@H]1CC[C@@]23CC24c2nc5ccc(OC)cc5cc2C(=O)N[C@H]4CN13 (some centres unmarked) [Formula B]
ED50 [1]: 0.27 mg/kg | Dosage needed to cure 50% of animals (50% curative dose) [2]: 4 mg/kg/day | Dosage needed to cure 100% of animals (100% curative dose) [2]: 16 mg/kg/day | IC50 [3]: 0.27 ± 0.07 nM | NOAEL at 2 weeks [4]: > 100 mg/kg/day | MTD at 2 weeks [4]: > 500 mg/kg | IC50 [5]: 0.18 ± 0.03 nM | ED50 [6]: 0.24 mg/kg | IC50 [7]: 5.8 nM | IC50 [8]: 0.17 ± 0.04 nM

COC[C@@H]([C@@H](O)[C@@H](O)[C@H](N)Cc1ccccc1)[C@@H]1CC[C@@]23CC24c2nc5ccc(OC)cc5cc2C(=O)N[C@H]4CN13 (some centres unmarked) [Formula C]
ED50 [1]: 0.18 mg/kg | Dosage needed to cure 50% of animals (50% curative dose) [2]: 2 mg/kg/day | Dosage needed to cure 100% of animals (100% curative dose) [2]: 8 mg/kg/day | IC50 [3]: 0.16 ± 0.03 nM | NOAEL at 2 weeks [4]: > 100 mg/kg/day | MTD at 2 weeks [4]: > 500 mg/kg | IC50 [5]: 0.09 ± 0.02 nM | ED50 [6]: 0.2 mg/kg | IC50 [7]: 7.1 nM | IC50 [8]: 0.19 ± 0.04 nM
